Values quoted from earlier work, collected in patent US20050175599A1, “Process for producing substance” (Kyowa Hakko Kogyo Co., Ltd., priority 2001, published 2005).

Assays:
murine fibroblast cells = conditions: ubiquinone added to media; Protoplasma, 184, 214 (1995); cited from earlier work
HeLa cells = conditions: ubiquinone added to media; Protoplasma, 184, 214 (1995); cited from earlier work
bovine embryo cells = conditions: ubiquinone added to media; Biol. Reprod., 61, 541 (1999); cited from earlier work

Measured: effect on cell growth

COC1=C(OC)C(=O)C(C/C=C(\C)CC/C=C(\C)CC/C=C(\C)CC/C=C(\C)CC/C=C(\C)CC/C=C(\C)CC/C=C(\C)CC/C=C(\C)CC/C=C(\C)CCC=C(C)C)=C(C)C1=O [ubiquinone, 2,3-dimethoxy-5-methyl-6-polyprenyl-1,4-benzoquinone]
promotes the growth: all assays above
